Laboratory results from patent US7598377B2, “Inhibition of phosphoinositide 3-kinase β” (AstraZeneca AB, priority 2002, dated 2009).
Where two headings read alike, the source gives them in different places.

Assays:
[1] = molecular target: Ab1 (Homo sapiens, UniProt P00519); assay: Tyrosine kinase assay by MDS Pharma Services (Panlabs); format: biochemical
[2] = molecular target: PKC Non-selective; assay: Ser/Thr kinase assay by MDS Pharma Services (Panlabs); format: biochemical
[3] = molecular target: T1, p110α-PI3K (Homo sapiens, UniProt P42336); assay: In vitro enzyme assay, p110α immunoprecipitated from platelet lysate (Biological Example 1); format: biochemical
T1 construct: The α and β isoforms of the PI3K were immunoprecipitated from a platelet lysate; from tissue; host or cells: washed platelets (lysate, immunoprecipitated with anti-p110α antibody)
Experimental: For each immunoprecipitation, 1 mg of lysate was incubated with an anti-p110α (1 μg), anti-p110β (1 μg), anti-p110δ (1 μg) or anti-PI4 kinase antibody (2-5 μg) and 50 μl of a 50% slurry of protein A beads overnight at 4° C. […] For PI4 kinase assays, protein A beads-immune complexes were also washed twice with lysis buffer, prior to two washes with 1× PI4 kinase assay buffer (20 mM Hepes, pH 7.5, 10 mM MgCl2, 0.3% Triton X-100) and the addition of other assay constituents, as described above. All reactions were terminated by the addition of 100 μl 1 M HCl, 200 μl choloroform/methanol (1:1) and 500 μl 2 M KCl and lipids extracted by centrifugation at 15,000×g for 2 minutes. The production of PI3 or PI4 kinase lipid products, PtdIns(3)P and PtdIns(4)P, were confirmed through TLC analysis. The lipid spots were then removed from the TLC plate and the level of radioactivity quantified to accurately determine the level of PtdIns(3)P/PtdIns(4)P production.

[4] = molecular target: Cdk2/cyclin A (Homo sapiens, UniProt P24941); assay: Ser/Thr kinase assay by MDS Pharma Services (Panlabs); format: biochemical
[5] = molecular target: p38α (Homo sapiens, UniProt Q16539); assay: as above; format: biochemical
[6] = molecular target: PKA Non-selective; assay: as above; format: biochemical
[7] = tested on: washed platelets; assay: FACS analysis of integrin αIIbβ3 activation and P-selectin expression; format: cell-based; settings: induced by thrombin, collagen and ADP; 0.5 μM TGX-221
Experimental: Agonists: Thrombin, 1 U/ml; ADP, […]; U46619, 1 μM; Soluble collagen 10 μg/ml.
Platelets were then stimulated with thrombin (1 U/ml), ADP ([…]), U46619 (1 μM) or collagen (10 μg/ml) for 20 min at room temperature prior to being fixed with 2% paraformaldehyde for 45 min at room temperature. Fixed platelets were washed twice with Tyrode's buffer, incubated with 1 μg/ml FITC-conjugated anti-mouse F(ab)2′ antibody for 15 min at room temperature, washed twice with Tyrode's buffer, resuspended to a final volume of 500 μl in Tyrode's buffer and analyzed by FACS.

[8] = tested on: platelets on immobilized vWf; assay: In vitro flow studies: platelet calcium flux and adhesion on immobilized vWf; format: cell-based
Experimental: The use of an in vitro-flow based adhesion assay enables us to simultaneously analyze platelet adhesion dynamics and activation (by monitoring cytosolic calcium flux) on immobilized von Willebrand factor (vWf). Briefly, isolated platelets are perfused through vWf (100 μg/ml) coated microcapillary tubes and analysis of cytosolic calcium flux conducted in real-time by confocal microscopy.
Washed platelets (1.5×10^9) suspended in PWB were incubated with the calcium indicator dyes, Oregon Green 488 BAPTA-1, AM (1 μM) and Fura Red, AM (1.25 μM), for 30 min at 37° C. Platelets were washed twice with PWB prior to being resuspended in Tyrode's buffer containing 1 mM calcium.
For static adhesion assays, platelets were allowed to settle on the surface of vWf-coated coverslips for 30 min at 37° C. For flow assays, platelets were either perfused over a vWf-coated microcapillary tube at a constant shear rate of 600, 1800 or 10,000 s^−1 or allowed to settle on the surface of a vWf-coated microcapillary tube prior to being accelerated through a shear gradient of 10,000 s^−1 over a 1 s interval. Real time platelet calcium flux in individual platelets was monitored at 1 s intervals over the 30 min incubation period or at 0.586 s intervals for up to 175 s for static and flow-based assays, respectively.

[9] = tested on: washed platelets; assay: Shear-induced platelet aggregation (cone & plate device, single platelet count); format: cell-based; settings: 5 min, vWf 10 μg/ml, 5000 s^−1 for 5 min, read-out: inhibition of shear induced platelet aggregation, IC50
Source text: Platelet samples were aspirated and the level of platelet aggregation determined by analyzing the number of unincorporated single platelets using a […] hematology analyzer. All data were normalized to control experiments and expressed as the proportional increase relative to control samples.

[10] = molecular target: p70^S6 (Homo sapiens, UniProt P23443); assay: Ser/Thr kinase assay by MDS Pharma Services (Panlabs); format: biochemical
[11] = molecular target: Casein Kinase 2 (Homo sapiens, UniProt P68400); assay: as above; format: biochemical
Casein Kinase 2, sequence (P68400 whole entry): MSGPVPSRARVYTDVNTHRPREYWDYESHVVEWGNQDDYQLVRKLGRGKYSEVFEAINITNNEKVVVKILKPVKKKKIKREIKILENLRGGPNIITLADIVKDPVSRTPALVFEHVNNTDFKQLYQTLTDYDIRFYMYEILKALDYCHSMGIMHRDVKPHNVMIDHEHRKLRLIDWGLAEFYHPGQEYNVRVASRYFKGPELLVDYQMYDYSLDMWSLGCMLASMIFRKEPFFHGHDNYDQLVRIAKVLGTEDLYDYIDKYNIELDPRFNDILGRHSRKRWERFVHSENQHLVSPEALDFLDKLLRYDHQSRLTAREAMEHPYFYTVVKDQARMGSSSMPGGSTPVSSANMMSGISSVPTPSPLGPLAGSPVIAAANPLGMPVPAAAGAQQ

T1 sequence (P42336 whole entry, canonical isoform): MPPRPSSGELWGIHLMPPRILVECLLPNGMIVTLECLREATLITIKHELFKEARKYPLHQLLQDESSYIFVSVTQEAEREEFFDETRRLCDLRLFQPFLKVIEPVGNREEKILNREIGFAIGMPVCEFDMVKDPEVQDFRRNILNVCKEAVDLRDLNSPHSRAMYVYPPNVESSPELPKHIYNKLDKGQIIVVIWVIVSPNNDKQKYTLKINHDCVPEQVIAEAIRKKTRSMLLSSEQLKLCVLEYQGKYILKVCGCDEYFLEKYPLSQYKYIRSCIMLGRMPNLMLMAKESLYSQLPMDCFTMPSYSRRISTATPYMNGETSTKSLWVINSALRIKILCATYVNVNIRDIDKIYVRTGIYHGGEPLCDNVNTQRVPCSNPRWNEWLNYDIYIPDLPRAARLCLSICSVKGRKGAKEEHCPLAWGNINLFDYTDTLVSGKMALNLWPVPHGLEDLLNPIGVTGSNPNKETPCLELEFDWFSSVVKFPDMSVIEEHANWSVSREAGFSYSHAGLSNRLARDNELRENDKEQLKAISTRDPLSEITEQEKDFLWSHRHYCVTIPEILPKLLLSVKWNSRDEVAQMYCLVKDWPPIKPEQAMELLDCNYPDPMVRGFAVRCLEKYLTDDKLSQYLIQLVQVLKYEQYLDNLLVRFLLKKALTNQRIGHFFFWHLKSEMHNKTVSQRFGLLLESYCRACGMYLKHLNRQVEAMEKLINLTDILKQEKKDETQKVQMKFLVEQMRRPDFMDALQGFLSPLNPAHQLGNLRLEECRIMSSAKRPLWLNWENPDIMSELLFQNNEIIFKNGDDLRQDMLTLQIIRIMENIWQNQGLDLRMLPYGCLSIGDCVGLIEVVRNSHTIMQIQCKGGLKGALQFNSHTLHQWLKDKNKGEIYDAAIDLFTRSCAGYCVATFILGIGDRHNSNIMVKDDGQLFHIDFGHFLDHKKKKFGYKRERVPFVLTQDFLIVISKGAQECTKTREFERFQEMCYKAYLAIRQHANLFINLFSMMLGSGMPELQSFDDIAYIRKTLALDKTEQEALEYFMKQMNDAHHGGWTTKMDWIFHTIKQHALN
T1 sequence (P27986 whole entry partner, canonical isoform): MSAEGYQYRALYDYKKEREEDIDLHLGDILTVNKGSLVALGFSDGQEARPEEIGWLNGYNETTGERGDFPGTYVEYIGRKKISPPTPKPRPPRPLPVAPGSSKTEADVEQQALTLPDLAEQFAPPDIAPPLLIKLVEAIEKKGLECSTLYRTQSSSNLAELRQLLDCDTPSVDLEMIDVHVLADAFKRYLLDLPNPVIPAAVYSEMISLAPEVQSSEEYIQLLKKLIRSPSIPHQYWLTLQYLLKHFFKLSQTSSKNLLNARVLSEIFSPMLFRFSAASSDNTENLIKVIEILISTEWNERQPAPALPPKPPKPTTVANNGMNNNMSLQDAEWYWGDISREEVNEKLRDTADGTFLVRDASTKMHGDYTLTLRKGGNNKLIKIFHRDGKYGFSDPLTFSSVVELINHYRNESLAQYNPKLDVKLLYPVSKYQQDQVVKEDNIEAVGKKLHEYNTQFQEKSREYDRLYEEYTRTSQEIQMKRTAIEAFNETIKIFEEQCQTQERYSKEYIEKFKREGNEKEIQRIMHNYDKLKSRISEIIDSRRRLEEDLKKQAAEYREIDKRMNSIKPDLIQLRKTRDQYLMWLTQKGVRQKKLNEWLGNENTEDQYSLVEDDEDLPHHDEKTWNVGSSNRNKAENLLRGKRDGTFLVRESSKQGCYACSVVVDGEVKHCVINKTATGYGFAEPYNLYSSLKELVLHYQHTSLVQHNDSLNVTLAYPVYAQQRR
p38α, sequence (Q16539 whole entry): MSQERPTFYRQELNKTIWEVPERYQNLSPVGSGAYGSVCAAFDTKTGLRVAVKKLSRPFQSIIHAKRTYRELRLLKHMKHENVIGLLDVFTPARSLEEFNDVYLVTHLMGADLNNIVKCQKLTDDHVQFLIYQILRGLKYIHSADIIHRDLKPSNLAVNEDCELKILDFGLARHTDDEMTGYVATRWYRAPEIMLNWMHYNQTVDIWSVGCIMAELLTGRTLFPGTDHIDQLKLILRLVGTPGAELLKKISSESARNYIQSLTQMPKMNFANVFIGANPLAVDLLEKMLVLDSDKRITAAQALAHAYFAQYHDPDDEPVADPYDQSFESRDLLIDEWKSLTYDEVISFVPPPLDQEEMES
Ab1, sequence (P00519 whole entry): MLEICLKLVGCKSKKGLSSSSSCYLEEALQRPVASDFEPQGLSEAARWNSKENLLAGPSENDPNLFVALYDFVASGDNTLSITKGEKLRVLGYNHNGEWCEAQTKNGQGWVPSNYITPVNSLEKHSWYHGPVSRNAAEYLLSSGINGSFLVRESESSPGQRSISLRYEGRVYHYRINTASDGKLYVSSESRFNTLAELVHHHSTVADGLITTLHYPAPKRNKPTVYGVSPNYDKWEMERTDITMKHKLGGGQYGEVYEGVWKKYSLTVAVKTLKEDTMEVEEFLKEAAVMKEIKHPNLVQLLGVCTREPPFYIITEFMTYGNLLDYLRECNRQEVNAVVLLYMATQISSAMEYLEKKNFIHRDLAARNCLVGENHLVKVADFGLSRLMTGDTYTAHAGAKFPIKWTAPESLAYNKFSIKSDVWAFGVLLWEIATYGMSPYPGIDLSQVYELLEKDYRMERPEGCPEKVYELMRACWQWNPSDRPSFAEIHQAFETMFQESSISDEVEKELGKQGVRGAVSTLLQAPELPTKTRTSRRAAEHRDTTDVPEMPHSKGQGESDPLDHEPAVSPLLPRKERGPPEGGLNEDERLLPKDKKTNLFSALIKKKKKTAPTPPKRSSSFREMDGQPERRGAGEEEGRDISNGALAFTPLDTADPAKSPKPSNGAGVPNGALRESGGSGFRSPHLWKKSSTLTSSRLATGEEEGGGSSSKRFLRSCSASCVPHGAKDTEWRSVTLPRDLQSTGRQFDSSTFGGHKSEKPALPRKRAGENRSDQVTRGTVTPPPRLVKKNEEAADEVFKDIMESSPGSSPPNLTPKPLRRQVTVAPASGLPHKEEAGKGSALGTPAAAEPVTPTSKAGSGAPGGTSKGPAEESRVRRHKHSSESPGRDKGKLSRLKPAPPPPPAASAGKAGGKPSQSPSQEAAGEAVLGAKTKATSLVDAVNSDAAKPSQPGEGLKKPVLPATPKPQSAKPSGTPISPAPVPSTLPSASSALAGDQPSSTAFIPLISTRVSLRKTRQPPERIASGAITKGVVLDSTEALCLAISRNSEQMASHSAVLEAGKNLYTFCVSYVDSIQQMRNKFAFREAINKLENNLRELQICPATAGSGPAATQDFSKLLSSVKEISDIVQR
p70^S6, sequence (P23443 24-525 limits assumed): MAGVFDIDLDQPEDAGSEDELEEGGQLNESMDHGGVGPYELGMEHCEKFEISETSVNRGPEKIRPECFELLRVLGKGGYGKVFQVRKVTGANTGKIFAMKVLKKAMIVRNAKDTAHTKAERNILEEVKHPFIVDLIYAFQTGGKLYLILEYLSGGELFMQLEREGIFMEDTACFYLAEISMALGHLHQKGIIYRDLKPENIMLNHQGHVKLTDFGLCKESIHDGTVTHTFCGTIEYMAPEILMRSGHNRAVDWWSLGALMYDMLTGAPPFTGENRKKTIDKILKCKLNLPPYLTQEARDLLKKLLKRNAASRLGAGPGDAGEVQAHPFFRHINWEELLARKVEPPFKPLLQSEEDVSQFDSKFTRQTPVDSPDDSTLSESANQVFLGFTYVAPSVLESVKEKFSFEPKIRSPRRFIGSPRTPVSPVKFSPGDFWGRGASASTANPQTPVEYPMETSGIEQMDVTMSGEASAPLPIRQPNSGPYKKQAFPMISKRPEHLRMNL

**Q.** What does the source list for Cc1cc(C(C)Nc2ccccc2)c2nc(N3CCOCC3)cc(=O)n2c1 (racemic) [TGX-221, (±)-7-methyl-2-morpholin-4-yl-9-(1-phenylaminoethyl)-pyrido[1,2-a]pyrimidin-4-one]?
**A.** IC50 [1]: > 10 µM; IC50 [2]: > 10 µM; IC50 ([3]; Table I, read-out: inhibitory concentration, alpha): > 5 µM; IC50 ([3]; read-out: IC50 (μM), p110α-PI3K): 5 µM; IC50 [4]: > 10 µM; IC50 [5]: > 10 µM; IC50 [6]: > 10 µM; integrin αIIbβ3 activation (PAC-1 binding) [7]: unaffected; γ-independent GPIb calcium signalling ([8]; 0.5 μM): did not inhibit; platelet responses to accelerated shear ([8]; vWf matrix, shear rate gradient up to 10,000 s^−1 over 1 s): Eliminates Platelet Responses to Accelerated Shear; IC50 [9]: 0.05 to 0.1 µM; IC50 [10]: > 10 µM; IC50 [11]: > 10 µM
